{"source": "patent US7666442B2", "about": "(Tracie Martyn International, LLC, priority 2004, dated 2010)", "origin": "cited, not measured here", "key": {"[1]": {"settings": "orally at dosages above 500 mg/kg body weight in animal studies"}, "[2]": {"settings": "using only natural ingredients (botanicals, antioxidants, coffe oil and microfine zinc oxide)"}}}
{"molecule": "NCCC(=O)N[C@@H](Cc1cnc[nH]1)C(=O)O", "note": "[Carnosine, beta-alanyl-L-histidine]", "values": [{"measurement": "Safety after oral administration", "setting": "[1]", "result": "safe"}]}
{"molecule": "Cc1ncc(CO)c(CN)c1O", "note": "[Pyridoxamine, 4-aminomethyl-5-hydroxy-6-methyl-3-pyridinemethanol]", "values": [{"measurement": "Water solubility", "result": "water-soluble"}]}
{"molecule": "COc1ccc(C=CC(=O)OCCC(C)C)cc1", "note": "[isoamyl-p-methoxycinnamate]", "values": [{"measurement": "spf", "setting": "[2]", "result": "greater than 30"}]}
